In ChEMBL document CHEMBL4406807, “Discovery of 3,4,6-Trisubstituted Piperidine Derivatives as Orally Active, Low hERG Blocking Akt Inhibitors via Conformational Restriction and Structure-Based Design” (J Med Chem, 2019):

Legend:
[1] = target: Ribosomal protein S6 kinase beta-1 (Homo sapiens, UniProt P23443); assay: Inhibition of human P70S6K by mobility shift assay
SK-OV-3 [2] = assay: Induction of apoptosis in human SKOV3 cells at 2 uM by FACS based flow cytometric analysis (reference value: 7.63%); format: functional
[3] = Cmax in Sprague-Dawley rat at 40 mg/kg, ig measured up to 24 hrs by LC-MS/MS analysis; format: ADME, organism-based; design: dose 40 mg/kg, route […]; conditions: in vivo, po
[4] = Clearance in ICR mouse at 40 mg/kg, ig measured up to 48 hrs by LC-MS/MS analysis; format: ADME, organism-based; conditions: in vivo, po
[5] = Volume of distribution in Sprague-Dawley rat at 40 mg/kg, ig measured up to 24 hrs by LC-MS/MS analysis; format: ADME, organism-based; conditions: in vivo, po
[6] = AUC (0 to infinity) in Sprague-Dawley rat at 40 mg/kg, ig measured up to 24 hrs by LC-MS/MS analysis; format: ADME, organism-based; design: dose 40 mg/kg, route […], time infinity; conditions: in vivo, po
[7] = Toxicity in BALB/c nude mouse xenografted with human SKOV3 cells assessed as effect on body weight at 40 mg/kg, po BID for 21 days; format: organism-based; conditions: in vivo, 504 h
[8] = Clearance in Sprague-Dawley rat at 40 mg/kg, ig measured up to 24 hrs by LC-MS/MS analysis; format: ADME, organism-based; conditions: in vivo, po
[9] = Stability in human plasma at 100 ug/ml after 1 hr by LC/MS analysis; format: ADME, cell-free; conditions: read-out: Stability
[10] = target: ATP-sensitive inward rectifier potassium channel 1 (Homo sapiens, UniProt P48048); assay: Inhibition of Kir1.1 (unknown origin) at 3 uM relative to control
ATP-sensitive inward rectifier potassium channel 1, sequence (P48048 whole entry): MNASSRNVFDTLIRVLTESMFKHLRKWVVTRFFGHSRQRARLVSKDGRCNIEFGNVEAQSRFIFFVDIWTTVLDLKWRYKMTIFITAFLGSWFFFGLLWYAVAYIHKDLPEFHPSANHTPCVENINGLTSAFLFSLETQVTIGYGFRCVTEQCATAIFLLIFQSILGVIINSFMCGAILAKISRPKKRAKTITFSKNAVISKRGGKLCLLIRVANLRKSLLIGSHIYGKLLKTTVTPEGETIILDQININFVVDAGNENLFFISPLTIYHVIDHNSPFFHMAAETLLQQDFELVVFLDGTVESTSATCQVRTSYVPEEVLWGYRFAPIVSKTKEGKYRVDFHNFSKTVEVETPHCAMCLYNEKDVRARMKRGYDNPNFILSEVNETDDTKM

[11] = target: Inward rectifier potassium channel 2 (Homo sapiens, UniProt P63252); assay: Inhibition of Kir2.1 (unknown origin) at 3 uM relative to control
[12] = target: Serine/threonine-protein kinase AKT (Homo sapiens, UniProt P31751+Q9Y243+P31749); assay: Inhibition of Akt in human LNCaP cells assessed as reduction in PRAS40 phosphorylation at T246 residue after 1 hr by ELISA; format: cell-based
[13] = target: Potassium/sodium hyperpolarization-activated cyclic nucleotide-gated channel 2 (Homo sapiens, UniProt Q9UL51); assay: Inhibition of HCN2 (unknown origin) at 3 uM relative to control
[14] = MRT (0 to t) in Sprague-Dawley rat at 40 mg/kg, ig measured up to 24 hrs by LC-MS/MS analysis; format: ADME, organism-based; conditions: in vivo, po
[15] = target: Rho-associated protein kinase 1 (Homo sapiens, UniProt Q13464); assay: Inhibition of human ROCK1 by mobile shift assay
Rho-associated protein kinase 1, sequence (Q13464 whole entry): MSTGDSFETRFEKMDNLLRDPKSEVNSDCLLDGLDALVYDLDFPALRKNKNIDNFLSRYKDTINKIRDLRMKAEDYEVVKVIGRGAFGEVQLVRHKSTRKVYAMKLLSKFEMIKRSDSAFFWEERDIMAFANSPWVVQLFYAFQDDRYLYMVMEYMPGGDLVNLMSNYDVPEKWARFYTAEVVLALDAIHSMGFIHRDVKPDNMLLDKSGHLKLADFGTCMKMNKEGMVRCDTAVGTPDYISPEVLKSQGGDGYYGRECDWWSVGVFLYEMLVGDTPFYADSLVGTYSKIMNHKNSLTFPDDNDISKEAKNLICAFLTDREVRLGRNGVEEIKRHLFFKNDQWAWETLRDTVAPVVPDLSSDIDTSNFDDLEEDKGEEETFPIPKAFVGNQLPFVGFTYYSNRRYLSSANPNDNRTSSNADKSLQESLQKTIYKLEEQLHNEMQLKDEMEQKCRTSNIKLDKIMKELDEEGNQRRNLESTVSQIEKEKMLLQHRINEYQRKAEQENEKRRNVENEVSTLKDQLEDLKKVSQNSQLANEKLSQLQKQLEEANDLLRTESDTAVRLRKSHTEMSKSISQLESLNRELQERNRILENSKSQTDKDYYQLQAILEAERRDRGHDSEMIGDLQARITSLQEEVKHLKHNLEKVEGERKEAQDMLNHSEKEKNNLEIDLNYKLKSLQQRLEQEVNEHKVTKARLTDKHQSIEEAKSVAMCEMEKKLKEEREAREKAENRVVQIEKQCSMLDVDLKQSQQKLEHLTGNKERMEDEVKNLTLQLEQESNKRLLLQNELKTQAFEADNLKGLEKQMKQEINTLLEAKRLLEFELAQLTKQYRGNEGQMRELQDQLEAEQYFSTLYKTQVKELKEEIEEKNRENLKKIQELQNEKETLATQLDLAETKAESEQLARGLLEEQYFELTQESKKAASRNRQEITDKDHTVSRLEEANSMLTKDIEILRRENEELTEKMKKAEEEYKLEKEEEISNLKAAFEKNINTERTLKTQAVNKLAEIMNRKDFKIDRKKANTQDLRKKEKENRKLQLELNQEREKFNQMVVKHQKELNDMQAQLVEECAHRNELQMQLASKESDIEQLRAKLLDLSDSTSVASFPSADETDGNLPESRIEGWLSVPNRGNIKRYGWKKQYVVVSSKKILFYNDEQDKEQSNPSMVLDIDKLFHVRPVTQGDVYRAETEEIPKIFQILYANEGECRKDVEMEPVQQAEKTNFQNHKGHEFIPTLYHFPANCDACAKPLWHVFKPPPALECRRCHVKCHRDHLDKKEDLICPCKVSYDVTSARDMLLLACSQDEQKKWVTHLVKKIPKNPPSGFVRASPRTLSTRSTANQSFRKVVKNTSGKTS

[16] = target: Potassium voltage-gated channel subfamily A member 2 (Homo sapiens, UniProt P16389); assay: Inhibition of Kv1.2 (unknown origin) at 3 uM relative to control
Potassium voltage-gated channel subfamily A member 2, sequence (P16389 whole entry): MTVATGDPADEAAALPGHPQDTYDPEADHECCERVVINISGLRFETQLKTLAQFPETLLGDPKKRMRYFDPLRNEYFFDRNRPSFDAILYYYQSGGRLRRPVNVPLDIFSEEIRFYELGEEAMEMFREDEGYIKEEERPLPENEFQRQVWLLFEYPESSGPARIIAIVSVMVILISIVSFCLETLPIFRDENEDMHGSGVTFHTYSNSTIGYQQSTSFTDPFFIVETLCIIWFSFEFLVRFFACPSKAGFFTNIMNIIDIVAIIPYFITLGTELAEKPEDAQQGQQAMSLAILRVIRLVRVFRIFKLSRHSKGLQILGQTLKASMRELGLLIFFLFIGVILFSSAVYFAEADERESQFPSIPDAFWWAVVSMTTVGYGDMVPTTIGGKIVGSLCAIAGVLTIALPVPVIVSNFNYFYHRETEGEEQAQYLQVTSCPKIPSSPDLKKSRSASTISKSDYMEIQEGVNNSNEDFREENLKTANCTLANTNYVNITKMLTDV

[17] = Toxicity in ICR mouse assessed as effect on serum hematology at 80 to 160 mg/kg, ig; format: organism-based; conditions: in vivo, po
LNCaP = assay: Antiproliferative activity against human LNCAP cells; format: functional, cell-based
[18] = target: Potassium voltage-gated channel subfamily A member 6 (Homo sapiens, UniProt P17658); assay: Inhibition of Kv1.6 (unknown origin) at 3 uM relative to control
Potassium voltage-gated channel subfamily A member 6, sequence (P17658 whole entry): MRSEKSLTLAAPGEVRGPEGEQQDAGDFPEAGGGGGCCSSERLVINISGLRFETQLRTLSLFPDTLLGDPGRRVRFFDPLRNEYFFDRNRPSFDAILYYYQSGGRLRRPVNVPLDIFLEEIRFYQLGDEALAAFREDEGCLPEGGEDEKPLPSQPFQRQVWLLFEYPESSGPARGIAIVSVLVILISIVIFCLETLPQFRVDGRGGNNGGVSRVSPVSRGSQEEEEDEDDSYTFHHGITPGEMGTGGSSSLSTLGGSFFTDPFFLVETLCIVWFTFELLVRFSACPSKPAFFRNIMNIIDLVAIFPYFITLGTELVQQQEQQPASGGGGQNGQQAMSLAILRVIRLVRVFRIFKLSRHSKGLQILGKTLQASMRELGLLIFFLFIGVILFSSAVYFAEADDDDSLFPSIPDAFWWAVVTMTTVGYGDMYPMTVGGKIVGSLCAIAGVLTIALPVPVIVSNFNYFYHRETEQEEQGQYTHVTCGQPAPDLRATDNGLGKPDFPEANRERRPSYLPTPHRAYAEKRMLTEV

[19] = Microsomal stability in mouse liver microsomes assessed as compound remaining at 100 ug/ml in presence of NADPH measured at 1.5 hrs by LC/MS analysis; format: ADME, Microsome; conditions: read-out: Stability
[20] = target: RAC-gamma serine/threonine-protein kinase (Homo sapiens, UniProt Q9Y243); assay: Inhibition of Akt3 (unknown origin) by mobile shift assay
RAC-gamma serine/threonine-protein kinase, sequence (Q9Y243 whole entry): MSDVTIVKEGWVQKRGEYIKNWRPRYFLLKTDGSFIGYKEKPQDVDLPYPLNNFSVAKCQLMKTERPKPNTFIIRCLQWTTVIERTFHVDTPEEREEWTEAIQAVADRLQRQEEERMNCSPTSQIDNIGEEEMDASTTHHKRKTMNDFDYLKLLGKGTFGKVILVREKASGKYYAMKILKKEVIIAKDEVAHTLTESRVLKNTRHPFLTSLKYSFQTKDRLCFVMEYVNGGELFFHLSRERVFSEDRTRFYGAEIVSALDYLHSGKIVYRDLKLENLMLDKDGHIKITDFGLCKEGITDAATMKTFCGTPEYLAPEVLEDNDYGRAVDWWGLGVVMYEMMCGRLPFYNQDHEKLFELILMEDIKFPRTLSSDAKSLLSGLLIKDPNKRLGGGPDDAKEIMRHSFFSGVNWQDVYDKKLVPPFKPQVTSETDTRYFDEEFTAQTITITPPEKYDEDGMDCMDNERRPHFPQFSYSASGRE

[21] = Toxicity in BALB/c nude mouse xenografted with human SKOV3 cells assessed as reduction in mouse survival at 40 mg/kg, po BID for 21 days; format: organism-based; conditions: in vivo, 504 h
[22] = Toxicity in ICR mouse assessed as effect on body weight at 80 to 160 mg/kg, ig administered once daily for 7 days; format: organism-based; conditions: in vivo, po, 168 h
[23] = target: RAC-beta serine/threonine-protein kinase (Homo sapiens, UniProt P31751); assay: Inhibition of human Akt2 by mobile shift assay
RAC-beta serine/threonine-protein kinase, sequence (P31751 whole entry): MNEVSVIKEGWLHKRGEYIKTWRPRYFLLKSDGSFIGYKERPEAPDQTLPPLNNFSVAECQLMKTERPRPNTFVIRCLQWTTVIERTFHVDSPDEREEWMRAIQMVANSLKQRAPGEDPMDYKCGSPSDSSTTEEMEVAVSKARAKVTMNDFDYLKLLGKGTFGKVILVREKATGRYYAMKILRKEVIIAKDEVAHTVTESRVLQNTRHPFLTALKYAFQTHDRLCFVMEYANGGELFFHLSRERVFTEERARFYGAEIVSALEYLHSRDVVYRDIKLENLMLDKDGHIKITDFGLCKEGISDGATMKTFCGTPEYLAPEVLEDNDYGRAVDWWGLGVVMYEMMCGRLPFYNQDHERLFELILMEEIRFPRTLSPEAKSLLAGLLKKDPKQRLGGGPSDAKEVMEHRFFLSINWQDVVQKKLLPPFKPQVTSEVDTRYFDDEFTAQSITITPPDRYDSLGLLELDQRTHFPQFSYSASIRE

[24] = MRT (0 to infinity) in ICR mouse at 40 mg/kg, ig measured up to 48 hrs by LC-MS/MS analysis; format: ADME, organism-based; conditions: in vivo, po
[25] = Half-life in ICR mouse at 40 mg/kg, ig measured up to 48 hrs by LC-MS/MS analysis; format: ADME, organism-based; conditions: in vivo, po
[26] = Microsomal stability in rat liver microsomes assessed as compound remaining at 100 ug/ml in presence of NADPH measured at 1.5 hrs by LC/MS analysis; format: ADME, Microsome; conditions: read-out: Stability
[27] = target: Potassium voltage-gated channel subfamily A member 3 (Homo sapiens, UniProt P22001); assay: Inhibition of Kv1.3 (unknown origin) at 3 uM relative to control
SK-OV-3 [28] = assay: Antitumor activity against human SKOV3 cells xenografted in BALB/c nude mouse assessed as tumor growth inhibition at 60 mg/kg, po administered once daily for 21 days relative to control; format: functional; conditions: SK-OV-3, po, 504 h, read-out: TGI
[29] = Toxicity in ICR mouse assessed as maximum tolerated dose, ig administered once daily for 7 days; conditions: in vivo, po
SK-OV-3 [30] = assay: Induction of apoptosis in human SKOV3 cells at 0.4 uM by FACS based flow cytometric analysis (reference value: 7.63%); format: functional
[31] = target: Potassium/sodium hyperpolarization-activated cyclic nucleotide-gated channel 3 (Homo sapiens, UniProt Q9P1Z3); assay: Inhibition of HCN3 (unknown origin) at 3 uM relative to control
Potassium/sodium hyperpolarization-activated cyclic nucleotide-gated channel 3, sequence (Q9P1Z3 whole entry): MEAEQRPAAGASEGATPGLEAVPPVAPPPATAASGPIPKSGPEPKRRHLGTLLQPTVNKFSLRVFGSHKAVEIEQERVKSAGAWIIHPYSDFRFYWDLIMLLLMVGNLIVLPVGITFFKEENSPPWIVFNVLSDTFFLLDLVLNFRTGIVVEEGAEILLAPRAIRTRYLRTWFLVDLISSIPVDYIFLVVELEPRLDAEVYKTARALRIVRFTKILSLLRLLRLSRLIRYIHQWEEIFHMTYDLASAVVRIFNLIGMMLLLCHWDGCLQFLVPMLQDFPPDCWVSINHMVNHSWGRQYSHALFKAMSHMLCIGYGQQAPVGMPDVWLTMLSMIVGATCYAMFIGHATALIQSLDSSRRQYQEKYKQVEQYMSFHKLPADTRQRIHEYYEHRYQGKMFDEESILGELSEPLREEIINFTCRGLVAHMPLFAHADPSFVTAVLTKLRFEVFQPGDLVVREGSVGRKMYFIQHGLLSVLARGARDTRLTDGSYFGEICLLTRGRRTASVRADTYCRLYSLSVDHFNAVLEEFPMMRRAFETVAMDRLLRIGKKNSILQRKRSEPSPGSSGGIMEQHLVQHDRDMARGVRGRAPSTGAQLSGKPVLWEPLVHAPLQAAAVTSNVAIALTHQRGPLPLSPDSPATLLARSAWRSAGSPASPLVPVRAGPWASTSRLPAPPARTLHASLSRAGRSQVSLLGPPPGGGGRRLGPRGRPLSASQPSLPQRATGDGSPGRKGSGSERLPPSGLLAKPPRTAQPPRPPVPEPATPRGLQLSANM

[32] = Inhibition of recombinant His-tagged human PKA expressed in Escherichia coli using Ser/Thr 01 as substrate after 1 hr by Z-lyte assay
[33] = Toxicity in BALB/c nude mouse xenografted with human SKOV3 cells assessed as effect on body weight at 60 to 80 mg/kg, po administered once daily for 21 days; format: organism-based; conditions: in vivo, 504 h
[34] = target: T1, Serine/threonine-protein kinase Sgk1 (Homo sapiens, UniProt O00141); assay: Inhibition of human SGK by mobility shift assay
T1 sequence (O00141 whole entry): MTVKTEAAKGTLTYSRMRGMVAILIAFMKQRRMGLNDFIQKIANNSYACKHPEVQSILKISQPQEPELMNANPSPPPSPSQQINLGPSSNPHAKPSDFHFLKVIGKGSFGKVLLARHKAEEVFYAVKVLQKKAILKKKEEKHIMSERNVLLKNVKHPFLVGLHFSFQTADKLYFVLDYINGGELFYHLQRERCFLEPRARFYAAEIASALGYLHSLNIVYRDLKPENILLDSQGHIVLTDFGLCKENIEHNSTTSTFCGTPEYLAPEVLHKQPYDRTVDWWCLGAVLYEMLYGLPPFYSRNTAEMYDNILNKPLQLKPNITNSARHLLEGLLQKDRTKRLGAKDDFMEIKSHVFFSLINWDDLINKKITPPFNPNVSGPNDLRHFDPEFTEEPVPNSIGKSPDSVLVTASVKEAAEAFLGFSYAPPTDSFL

[35] = Toxicity in ICR mouse assessed as effect on biochemical parameter at 80 to 160 mg/kg, ig; format: organism-based; conditions: in vivo, po

Ribosomal protein S6 kinase beta-1, sequence (P23443 whole entry): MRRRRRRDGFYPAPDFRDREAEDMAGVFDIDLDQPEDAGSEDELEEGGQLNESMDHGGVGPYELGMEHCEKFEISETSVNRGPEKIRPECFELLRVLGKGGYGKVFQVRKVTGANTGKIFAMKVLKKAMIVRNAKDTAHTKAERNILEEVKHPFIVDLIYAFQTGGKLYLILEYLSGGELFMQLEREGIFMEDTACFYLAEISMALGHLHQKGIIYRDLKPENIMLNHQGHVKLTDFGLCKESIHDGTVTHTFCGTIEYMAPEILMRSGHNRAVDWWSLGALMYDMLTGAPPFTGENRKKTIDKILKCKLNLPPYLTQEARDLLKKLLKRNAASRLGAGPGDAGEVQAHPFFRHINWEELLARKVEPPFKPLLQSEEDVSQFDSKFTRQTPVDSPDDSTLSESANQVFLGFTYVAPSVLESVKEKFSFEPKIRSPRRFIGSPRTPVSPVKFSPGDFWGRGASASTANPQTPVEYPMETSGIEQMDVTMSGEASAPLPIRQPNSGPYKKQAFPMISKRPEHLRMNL

CNC(=O)C[C@@H]1C[C@@H](c2ccc(F)c(F)c2)[C@H](NC(=O)c2cc(-c3c(Cl)cnn3C)c(Cl)o2)CN1
IC50 [1]: 8.9 nM | Activity (SK-OV-3 [2]): 64.22% | Cmax [3]: 407 ng/mL | CL/F [4]: 31.7 mL/min/kg | Vd [5]: 147.2 L/kg | AUC(0-inf) [6]: 3090 ng·h/mL | Activity [7]: Non-Toxic | CL/F [8]: 237 mL/min/kg | remaining at 1 h, 100 ug/ml [9]: > 99% | inhibition (INH) [10]: Not Active | inhibition (INH) [11]: Not Active | IC50 [12]: 44 nM | inhibition (INH) [13]: Not Active | MRT last at 24 h [14]: 5.8 h | IC50 [15]: 64 nM | inhibition (INH) [16]: Not Active | Activity [17]: Non-Toxic | IC50 (LNCaP): 50 nM | inhibition (INH) [18]: Not Active | remaining at 1.5 h, 100 ug/ml [19]: > 99% | IC50 [20]: 1.7 nM | Activity [21]: Non-Toxic | Activity [22]: Non-Toxic | IC50 [23]: 1.2 nM | MRT inf [24]: 5.3 h | half-life [25]: 3.3 h | remaining at 1.5 h, 100 ug/ml [26]: 89% | inhibition (INH) [27]: Not Active | inhibition in vivo at 60 mg/kg (SK-OV-3 [28]): 79.2% | MTD at 168 h [29]: ≥ 80 mg/kg | Activity (SK-OV-3 [30]): 39.88% | inhibition (INH) [31]: Not Active | IC50 [32]: 0.3 nM | Activity [33]: Non-Toxic | IC50 [34]: 145 nM | Activity [35]: Non-Toxic
